Drawing on patent publication US8044079B2, “Substituted oxindole derivatives, medicaments containing said derivatives and use thereof” (Abbott GmbH & Co. KG, priority 2005, dated 2011), this text covers Ki for 21 molecules.

In the assay the target is T1, human vasopressin V1b receptor (Homo sapiens, UniProt P47901).
T1 construct: expressed in transfected cells; host or cells: CHO-K1 (cell line hV1b_3H2_CHO), membrane preparation
T1 sequence (P47901 1-424): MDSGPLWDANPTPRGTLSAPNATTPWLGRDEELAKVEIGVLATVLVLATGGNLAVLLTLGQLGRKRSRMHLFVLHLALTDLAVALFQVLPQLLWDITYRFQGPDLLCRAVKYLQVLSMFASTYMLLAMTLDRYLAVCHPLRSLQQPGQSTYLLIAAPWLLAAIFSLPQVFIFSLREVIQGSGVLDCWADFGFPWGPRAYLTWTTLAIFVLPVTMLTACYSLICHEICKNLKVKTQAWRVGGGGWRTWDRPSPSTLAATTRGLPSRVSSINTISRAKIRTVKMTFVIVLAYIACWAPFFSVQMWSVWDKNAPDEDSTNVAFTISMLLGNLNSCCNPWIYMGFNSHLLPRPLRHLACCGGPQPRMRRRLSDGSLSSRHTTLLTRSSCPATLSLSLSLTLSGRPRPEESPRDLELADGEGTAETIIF
As to the kind of experiment: Vasopressin V1b receptor binding test. The conditions noted are these: membranes of CHO-K1 cells with human V1b receptor, displacement of 1.5 nM 3H-AVP; for compounds with more than one stereogenic center the diastereomer with greater affinity. The method in brief:
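Radioligand displacement on membranes carrying human V1b receptor in 50 mM tris, 10 mM MgCl2, 0.1% BSA, pH 7.4, 2% DMSO final; 60 min at room temperature, nonspecific binding with 1 μM AVP. Free ligand removed by filtration, bound counted by liquid scintillation, Ki from nonlinear regression of triplicates.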

The Ki is the equilibrium dissociation constant of an inhibitor or competing ligand from its target. As for `COc1ccc(S(=O)(=O)N2C(=O)C(c3cc(CN(C)C)ccc3OC)(N3C[C@H](F)C[C@H]3c3ncco3)c3cc(C#N)ccc32)cc1` (stereo partly drawn) [Example 230, 5-Cyano-3-(5-dimethylaminomethyl-2-methoxyphenyl)-3-((2S,4R)-4-fluoro-2-oxazol-2-yl-pyrrolidin-1-yl)-1-(4-methoxybenzenesulfonyl)-1,3-dihydroindol-2-one], the inhibitory constant (Ki) was in the range of 10 to 100 nM. `CCN1CCN(Cc2ccc(OC)c(C3(N4C[C@H](O)C[C@H]4c4ncco4)C(=O)N(S(=O)(=O)c4ccc(OC)cc4)c4ccc(C#N)cc43)c2)CC1` (stereo partly drawn) [Example 221, 5-Cyano-3-[5-(4-ethylpiperazin-1-ylmethyl)-2-methoxyphenyl]-3-((2S,4R)-4-hydroxy-2-oxazol-2-yl-pyrrolidin-1-yl)-1-(4-methoxybenzenesulfonyl)-2,3-dihydro-1H-indol-2-one] returned a Ki of less than 10 nM. The value for `COc1ccc(S(=O)(=O)N2C(=O)C(c3cc(CN4CCN(C(C)=O)CC4)ccc3OC)(N3CCC[C@H]3c3ncco3)c3cc(Cl)ccc32)cc1` (stereo partly drawn) [Example 90, 3-[5-(4-Acetylpiperazin-1-ylmethyl)-2-methoxyphenyl]-5-chloro-1-(4-methoxybenzenesulfonyl)-3-((S)-2-oxazol-2-yl-pyrrolidin-1-yl)-1,3-dihydroindol-2-one] was 10 to 100 nM. Regarding `COc1ccc(S(=O)(=O)N2C(=O)C(c3cc(CN4CCCC4)ccc3OC)(N3C[C@H](O)C[C@H]3c3ncco3)c3cc(Cl)ccc32)cc1` (stereo partly drawn) [Example 114, 5-Chloro-3-((2S,4R)-4-hydroxy-2-oxazol-2-yl-pyrrolidin-1-yl)-1-(4-methoxybenzenesulfonyl)-3-(2-methoxy-5-(pyrrolidin-1-ylmethyl)phenyl)-1,3-dihydroindol-2-one], the inhibition constant (Ki) was less than 10 nM.

The molecule `CCNCc1cc2c(c(C3(N4CCC[C@H]4c4ncco4)C(=O)N(S(=O)(=O)c4ccc(OC)cc4)c4ccc(Cl)cc43)c1)OCO2` (stereo partly drawn) [Example 188, 5-Chloro-3-(6-ethylaminomethylbenzo[1,3]dioxol-4-yl)-1-(4-methoxybenzenesulfonyl)-3-((S)-2-oxazol-2-yl-pyrrolidin-1-yl)-1,3-dihydroindol-2-one] showed a Ki of less than 10 nM. The molecule `COc1ccc(S(=O)(=O)N2C(=O)C(c3cc(CN4CCN(C)CC4)ccc3OC)(N3C[C@H](OC)C[C@H]3c3ncco3)c3cc(Cl)ccc32)cc1` (stereo partly drawn) [Example 224, 5-Chloro-1-(4-methoxybenzenesulfonyl)-3-[2-methoxy-5-(4-methylpiperazin-1-ylmethyl)phenyl]-3-((2S,4R)-4-methoxy-2-oxazol-2-yl-pyrrolidin-1-yl)-1,3-dihydroindol-2-one] showed a Ki of less than 10 nM.

`COc1ccc(S(=O)(=O)N2C(=O)C(c3cc(CN4CCN(C)CC4)ccc3OC)(N3CCC[C@H]3c3ncco3)c3cc(C#N)ccc32)cc1` (stereo partly drawn) [Example 56, 5-Cyano-1-(4-methoxybenzenesulfonyl)-3-[2-methoxy-5-(4-methylpiperazin-1-ylmethyl)phenyl]-3-((S)-2-oxazol-2-yl-pyrrolidin-1-yl)-1,3-dihydroindol-2-one] had a Ki of less than 10 nM. `COc1ccc(S(=O)(=O)N2C(=O)C(c3ccc(CN4CCOCC4)cc3OC)(N3CCC[C@H]3c3ncco3)c3cc(Cl)ccc32)cc1` (stereo partly drawn) [Example 146, 5-Chloro-1-(4-methoxybenzenesulfonyl)-3-(2-methoxy-4-(morpholin-4-ylmethyl)phenyl)-3-((S)-2-oxazol-2-yl-pyrrolidin-1-yl)-1,3-dihydroindol-2-one] came in with a Ki of 10 to 100 nM. For the molecule `COc1ccc(S(=O)(=O)N2C(=O)C(c3ccc(CN4CCN(C(C)C)CC4)cc3OC)(N3C[C@H](O)C[C@H]3c3ncco3)c3cc(Cl)ccc32)cc1` (stereo partly drawn) [Example 166, 5-Chloro-3-((2S,4R)-4-hydroxy-2-oxazol-2-yl-pyrrolidin-1-yl)-3-[4-(4-isopropylpiperazin-1-ylmethyl)-2-methoxyphenyl]-1-(4-methoxybenzenesulfonyl)-1,3-dihydroindol-2-one], the Ki is less than 10 nM.

With `COc1ccc(S(=O)(=O)N2C(=O)C(c3ccc(CN4CCNCC4)cc3OC)(N3CCC[C@H]3c3ncco3)c3cc(Cl)ccc32)cc1` (stereo partly drawn) [Example 24, 5-Chloro-1-(4-methoxybenzenesulfonyl)-3-(2-methoxy-4-piperazin-1-ylmethylphenyl)-3-((S)-2-oxazol-2-yl-pyrrolidin-1-yl)-1,3-dihydroindol-2-one], the inhibition constant Ki is less than 10 nM. The molecule `COc1ccc(S(=O)(=O)N2C(=O)C(c3cc(CN4CCN(CCO)CC4)ccc3OC)(N3C[C@H](O)C[C@H]3c3ncco3)c3cc(C#N)ccc32)cc1` (stereo partly drawn) [Example 222, 5-Cyano-3-{5-[4-(2-hydroxyethyl)piperazin-1-ylmethyl]-2-methoxyphenyl}-3-((2S,4R)-4-hydroxy-2-oxazol-2-yl-pyrrolidin-1-yl)-1-(4-methoxybenzenesulfonyl)-2,3-dihydro-1H-indol-2-one] had an inhibition constant (Ki) of 10 to 100 nM. `COc1ccc(S(=O)(=O)N2C(=O)C(c3cc(CN4CCNC(=O)C4)ccc3OC)(N3CCC[C@H]3c3ncco3)c3cc(C#N)ccc32)cc1` (stereo partly drawn) [Example 143, 5-Cyano-1-(4-methoxy-benzenesulfonyl)-3-[2-methoxy-5-(3-oxo-piperazin-1-ylmethyl)phenyl]-3-((S)-2-oxazol-2-yl-pyrrolidin-1-yl)-1,3-dihydroindol-2-one]: the Ki was less than 10 nM.

`CCN1CCN(Cc2ccc(C3(N4C[C@H](O)C[C@H]4c4ncco4)C(=O)N(S(=O)(=O)c4ccc(C#N)cc4)c4ccc(Cl)cc43)c(OC)c2)CC1` (stereo partly drawn) [Example 181, 5-Chloro-3-[4-(4-ethylpiperazin-1-ylmethyl)-2-methoxyphenyl]-3-((2S,4R)-4-hydroxy-2-oxazol-2-yl-pyrrolidin-1-yl)-1-(4-cyanobenzenesulfonyl)-1,3-dihydroindol-2-one] had a Ki of less than 10 nM. `COCCN(C)Cc1ccc(OC)c(C2(N3CCC[C@H]3c3ncco3)C(=O)N(S(=O)(=O)c3ccc(OC)cc3)c3cc(Cl)ccc32)c1` (stereo partly drawn) [Example 34, 6-Chloro-1-(4-methoxybenzenesulfonyl)-3-(2-methoxy-5-{[(2-methoxyethyl)methylamino]methyl}phenyl)-3-((S)-2-oxazol-2-yl-pyrrolidin-1-yl)-1,3-dihydroindol-2-one]: the Ki fell in the range of 100 to 1000 nM. The value for `COc1ccc(S(=O)(=O)N2C(=O)C(c3cc(CN(C)C)ccc3OC)(N3C[C@H](OC)C[C@H]3c3ncco3)c3cc(Cl)ccc32)cc1` (stereo partly drawn) [Example 223, 5-Chloro-3-(5-dimethylaminomethyl-2-methoxyphenyl)-1-(4-methoxybenzenesulfonyl)-3-((2S,4R)-4-methoxy-2-oxazol-2-yl-pyrrolidin-1-yl)-1,3-dihydroindol-2-one] was less than 10 nM; that for `COc1ccc(S(=O)(=O)N2C(=O)C(c3cc(CN4CCCN(C)CC4)ccc3OC)(N3CCC[C@H]3c3ncco3)c3cc(Cl)ccc32)cc1` (stereo partly drawn) [Example 91, 5-Chloro-1-(4-methoxybenzenesulfonyl)-3-[2-methoxy-5-(4-methyl-[1,4]diazepan-1-ylmethyl)phenyl]-3-((S)-2-oxazol-2-yl-pyrrolidin-1-yl)-1,3-dihydroindol-2-one] was less than 10 nM. `CCNCc1ccc(OC)c(C2(N3CCC[C@H]3c3ncon3)C(=O)N(S(=O)(=O)c3ccc(OC)cc3)c3ccc(Cl)cc32)c1` (stereo partly drawn) [Example 216, 5-Chloro-3-(5-ethylaminomethyl-2-methoxyphenyl)-1-(4-methoxybenzenesulfonyl)-3-((S)-2-[1,2,4]oxadiazol-3-yl-pyrrolidin-1-yl)-1,3-dihydroindol-2-one] gave a Ki of less than 10 nM. For `CCCNCc1ccc(OC)c(C2(N3C[C@H](O)C[C@H]3c3ncco3)C(=O)N(S(=O)(=O)c3ccc(OC)cc3)c3ccc(C#N)cc32)c1` (stereo partly drawn) [Example 177, 5-Cyano-3-((2S,4R)-4-hydroxy-2-oxazol-2-yl-pyrrolidin-1-yl)-1-(4-methoxybenzenesulfonyl)-3-(2-methoxy-5-propylaminomethylphenyl)-1,3-dihydroindol-2-one], the Ki was less than 10 nM. Consider `COc1ccc(S(=O)(=O)N2C(=O)C(c3cc(CN4CCN(C)CC4)ccc3OC)(N3CCCC3c3nccs3)c3cc(Cl)ccc32)cc1` (stereo not drawn) [Example 119, 5-Chloro-1-(4-methoxybenzenesulfonyl)-3-[2-methoxy-5-(4-methylpiperazin-1-ylmethyl)phenyl]-3-(2-thiazol-2-yl-pyrrolidin-1-yl)-1,3-dihydroindol-2-one], for which the Ki was 10 to 100 nM. Molecule `CCCNCc1ccc(OC)c(C2(N3CCC[C@H]3c3ncco3)C(=O)N(S(=O)(=O)c3ccc(OC)cc3)c3ccc(C#N)cc32)c1` (stereo partly drawn) [Example 50, 5-Cyano-1-(4-methoxybenzenesulfonyl)-3-(2-methoxy-5-propylaminomethylphenyl)-3-((S)-2-oxazol-2-yl-pyrrolidin-1-yl)-1,3-dihydroindol-2-one] gave an inhibition constant (Ki) of less than 10 nM.

In turn, `CCNCc1ccc(C2(N3CCC[C@H]3c3ncco3)C(=O)N(S(=O)(=O)c3ccc(OC)cc3)c3ccc(Cl)cc32)c(OC)c1` (stereo partly drawn) [Example 131, 5-Chloro-3-(4-ethylaminomethyl-2-methoxyphenyl)-1-(4-methoxybenzenesulfonyl)-3-((S)-2-oxazol-2-yl-pyrrolidin-1-yl)-1,3-dihydroindol-2-one] had a Ki of 10 to 100 nM.
